According to PubChem BioAssay (NCI):
Several values for one entry are separate records, joined by “and”; a condition that tells them apart may be missing. Identical values can stand only once.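 Exposure lasted 48 hours, with cells grown in 96-well plates and compounds tested at five concentrations. GI50 is the concentration that inhibits growth by half. The concentration for full growth arrest is given as TGI.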

What was measured:
Experiment in all cases: NCI-60 cell line screen, 48 h
M14 melanoma = test system: M14 melanoma
SK-MEL-28 melanoma = test system: SK-MEL-28 melanoma
A549 NSCLC = test system: A549 NSCLC
UO-31 renal = test system: UO-31 renal
OVCAR-3 ovarian = test system: OVCAR-3 ovarian
LOX IMVI melanoma = test system: LOX IMVI melanoma
NCI-H460 lung = test system: NCI-H460 lung
HCT-15 colon = test system: HCT-15 colon
IGROV1 ovarian = test system: IGROV1 ovarian
HOP-62 NSCLC = test system: HOP-62 NSCLC

| Compound | GI50 (M14 melanoma) | TGI (M14 melanoma) | GI50 (SK-MEL-28 melanoma) [µM] | TGI (SK-MEL-28 melanoma) [µM] | GI50 (A549 NSCLC) | TGI (A549 NSCLC) [µM] | GI50 (UO-31 renal) [µM] | TGI (UO-31 renal) [µM] | GI50 (OVCAR-3 ovarian) [µM] | TGI (OVCAR-3 ovarian) | GI50 (LOX IMVI melanoma) | TGI (LOX IMVI melanoma) [µM] | GI50 (NCI-H460 lung) | TGI (NCI-H460 lung) [µM] | GI50 (HCT-15 colon) [µM] | TGI (HCT-15 colon) [µM] | GI50 (IGROV1 ovarian) [µM] | TGI (IGROV1 ovarian) [µM] | GI50 (HOP-62 NSCLC) | TGI (HOP-62 NSCLC) [µM] |
| --- | --- | --- | --- | --- | --- | --- | --- | --- | --- | --- | --- | --- | --- | --- | --- | --- | --- | --- | --- | --- |
| COc1cc(C(=O)/C=C/c2sc(Cl)nc2Cl)cc(OC)c1OC | 1.85 µM | 3.57 µM | 1.78 | 3.27 | 3.18 µM | 11.8 | 1.44 | 2.75 | 1.77 | 3.21 µM | 1.58 µM | 2.97 | 2.29 µM | 5.29 | 1.53 | 3 | 1.68 | 3.22 | 2.29 µM | 5.6 |
| CC(=O)NC1=C(NCC(C)(C)C)C(=O)c2ccccc2C1=O | – | > 100 µM | – | > 100 | – | > 100 | – | > 100 | – | > 100 µM | – | > 100 | – | > 100 | – | > 100 | – | > 100 | – | > 100 |
| CCOC(=O)C(Sc1ccccc1)c1c(OC)cc(=O)oc1/C=[N+](/[O-])c1ccc(N(C)C)cc1 (stereo not given) | – | 31.1 µM | – | 37 | – | > 100 | – | 41.9 | – | 26 µM | – | 26.6 | – | 82.5 | – | 31.8 | – | > 100 | – | > 100 |
| CC[C@@]12CCCN3CC[C@]4(c5cccc(OC)c5N(C(C)=O)[C@@H]4CC1)[C@H]32 | – | > 100 µM | – | > 100 | – | > 100 | – | > 100 | – | > 100 µM | – | > 100 | – | > 100 | – | > 100 | – | > 100 | – | > 100 |
| COC(=O)[C@@H](C)C[C@H](Cc1ccc(F)cc1)NC(=O)c1csc([C@@H](C[C@H](C(C)C)N(C)C(=O)[C@@H](NC(=O)[C@H]2CCCCN2C)C(C)C)OC(C)=O)n1 | 0.00119 µM and 0.00539 µM | 0.763 µM and 0.079 µM | > 16.7 | > 16.7 | 0.00277 µM and 0.0107 µM | > 16.7 | – | > 16.7 | – | 0.00216 µM and 0.012 µM | 0.00184 µM and 0.0095 µM | > 16.7 | 0.000678 µM and 0.0063 µM | > 16.7 | – | > 16.7 | – | > 16.7 | 0.00187 µM and 0.0102 µM | > 16.7 |
| Fc1ccc(Nc2ncnc3ccc(-c4cnc5[nH]ccc5c4)cc23)cc1Cl | 4.35 µM | > 100 µM | 4.13 | > 36.2 | 1.79 µM | 5.33 | 0.6 | 2.38 | 1.51 | 3.73 µM | 3.95 µM | > 29.4 | 1.83 µM | 4.06 | 3.24 | > 76.5 | 0.45 | 3.41 | 3.54 µM | 15.6 |
| NC(CSC(c1ccccc1)(c1ccccc1)c1ccc2c(c1)OCO2)C(=O)O (stereo not given) | 0.239 µM | 0.648 µM | 0.799 | 98.5 | 0.635 µM | > 100 | 9.6 | > 100 | 0.512 | 16.4 µM | 0.577 µM | > 43.6 | 0.375 µM | > 40 | 1.15 | > 81 | 2.5 | > 100 | 1.64 µM | > 100 |
| C/C(CCn1[nH]c(=O)ccc1=O)=N\O | – | > 100 µM | – | > 100 | – | > 100 | – | > 100 | – | > 100 µM | – | > 100 | – | > 100 | – | > 100 | – | > 100 | – | > 100 |
| COc1cc2nc(-c3ccc(C(F)(F)F)cc3)cc(OCCCN3CCC(O)CC3)c2cc1OC | 0.535 µM | 2.26 µM | 2.38 | 11.5 | 1.65 µM | 18.4 | 2.71 | 14.6 | 6.1 | 22.2 µM | 0.19 µM | 0.447 | 0.835 µM | 16 | 0.667 | 13.8 | 0.9 | 18.2 | 1.8 µM | 15 |
| CSc1ccccc1C#C/C=C\C#Cc1ccccc1N1CCCC1=O | > 12.3 µM | > 50 µM | – | > 50 | > 11 µM | > 50 | – | > 50 | – | > 14 µM | – | > 50 | – | > 50 | – | > 50 | 14.9 | > 50 | > 15.8 µM | > 50 |
| Cc1cc2nc(C(Cl)Cl)nc(-c3ccc(Cl)cc3)n2n1 | 1.31 µM | 3.25 µM | 1.63 | 3.38 | 0.448 µM | 3.28 | 1.42 | 3.92 | 0.491 | 1.87 µM | 3.95 µM | > 100 | 0.304 µM | 1.09 | 0.745 | 3.47 | 1.38 | 5.28 | 0.864 µM | 4.27 |
| COc1c2ccoc2c(/C=C/C=O)c2oc(-c3ccccc3)cc(=O)c12 | 3.32 µM | > 100 µM | 2.73 | 9.17 | 21.5 µM | > 100 | 3.62 | 35.2 | 5.19 | 21.7 µM | 1.48 µM | 2.8 | 11.3 µM | 61.4 | 2.52 | 9.06 | 17.5 | > 100 | 2.49 µM | 9.48 |
| Cc1cc(=O)n2[nH]c(-c3ccc(C(C)(C)C)cc3)cc2n1 | 12.7 µM | > 100 µM | 20.6 | > 100 | 11.6 µM | > 100 | 3.17 | > 100 | 3.24 | 43.5 µM | 7.39 µM | 61.6 | 3.03 µM | 38 | 5.79 | > 100 | 7.36 | > 100 | 17.5 µM | 76.9 |
| COc1ccc(NC(=O)c2cc(OC)cc(OC)c2)cc1 | – | > 100 µM | – | > 100 | – | > 100 | – | > 100 | – | > 48.6 µM | – | > 100 | – | > 100 | – | > 100 | – | > 100 | – | > 100 |
| O=C1C2=C(SCCS2)C(=O)c2ccccc21 | – | 3.33 µM | – | 3.26 | – | 3.83 | – | 3.37 | – | 3.08 µM | – | 2.27 | – | 3.38 | – | 3.08 | – | 3.17 | – | 2.9 |
| COc1ccc(-c2cc(-c3ccc(Nc4nc(Nc5ccccc5)nc(Nc5ccc(Cl)cc5)n4)cc3)nc(N)c2C#N)cc1 | 0.887 µM | 1.81 µM | 0.857 | 1.76 | 2.74 µM | > 50 | 0.72 | 1.49 | 0.761 | 1.52 µM | 0.837 µM | 1.58 | 2.18 µM | > 39 | 1.2 | 3.68 | 0.546 | 1.41 | 1.93 µM | 8.98 |
| O=c1n(CC2CO2)c(=O)n(CC2CO2)n1CC1CO1 (stereo not given) | 21.9 µM | > 100 µM | > 53.1 | > 100 | 5.9 µM | > 72 | 7.86 | > 76.2 | 13.7 | > 55.5 µM | 16.7 µM | > 100 | 0.416 µM | 30.8 | 11.1 | 44.3 | 13.2 | 41.1 | 4.7 µM | > 35.5 |
| O=C(O)c1cc(C(=O)O)cc(N2C(=O)c3ccccc3C2=O)c1 | – | > 100 µM | – | > 100 | – | > 100 | – | > 100 | – | > 100 µM | – | > 100 | – | > 100 | – | > 100 | – | > 100 | – | > 100 |
| O=C1/C(=C/c2ccc([N+](=O)[O-])cc2)COc2ccc(O)c(O)c21 | 1.54 µM | 3.3 µM | 2.1 | 4.61 | 2.04 µM | 5.17 | 0.696 | 2.23 | 0.79 | 2.14 µM | 1.05 µM | 2.29 | 1.74 µM | 3.84 | 0.606 | 3.55 | 1.25 | 3.55 | 2.57 µM | 6.34 |
| CC(=O)OC1COC(n2c(=S)n(-c3ccc(C)cc3)c(=O)c3ccccc32)C(OC(C)=O)C1OC(C)=O (stereo not given) | – | > 100 µM | – | > 100 | – | > 100 | – | > 100 | – | > 100 µM | – | > 100 | – | > 100 | – | > 100 | – | > 100 | – | > 100 |
| COc1cc2c(c(OC)c1O)C(=O)C(OC)C(c1ccc(O)c(O)c1)O2 (stereo not given) | 0.155 µM | > 100 µM | 10.1 | > 100 | 1.31 µM | > 100 | 0.53 | > 100 | 0.343 | > 32.7 µM | 0.352 µM | > 100 | 0.364 µM | > 100 | 0.0776 | > 100 | 0.553 | > 100 | 0.712 µM | > 100 |
| CC1=C(C#N)C23C(=O)c4ccccc4C(O)=C2C(=O)C=CC3(O)N1Cc1ccccc1 (stereo not given) | 32.8 µM | > 100 µM | 57.1 | > 100 | 72.2 µM | > 100 | 18 | > 100 | 32 | > 100 µM | 33 µM | > 100 | 30.3 µM | > 100 | 15 | > 100 | 23.9 | 72.4 | 49.9 µM | > 100 |
